Laboratory results: patent US5395947A, “Platinum(II) complex and processes for preparing the same” (Sunkyong Industries, Ltd., priority 1991, dated 1995)

Columns and labels:
[1] = tested on: murine leukemia L1210 cells; assay: Growth inhibition test on cultured murine leukemia L1210 cells; type: cell-based; details: 48 hours, 37° C., Trypan blue viability
Procedure, shortened: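 L1210 cells (1×10^5) exposed to graded compound concentrations in RPMI 1640 with 10% fetal calf serum, 37° C, 5% CO2, 48 h. Viability by 0.17% Trypan blue staining, relative to untreated control cells.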

murine leukemia L1210 = assay: Antitumor activity test on murine leukemia L1210 in vivo; design: species or system male BDF1 mice; details: days 1, 5, 9
Procedure, shortened: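 Intraperitoneal L1210 model: 1×10^6 cells inoculated i.p. into 6-week-old male BDF1 mice (21±3 g) on day 0, seven per group. Compounds in 0.5% CMC given i.p. on days 1, 5 and 9; vehicle-only controls. T/C % from mean survival time of treated over control.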

[2] = Test for water solubility; type: physicochemical; details: 20° C.
Source text: 3. Test for water solubility
A standard plot of UV absorbance(220 nm) vs. concentration was made; and employed to determine water-solubility.
The mixture was then passed through a 0.45 micron disposable membrane filter before dilution and UV measurement.

Test for nephrotoxicity = type: in vivo, male ICR mice
Description: 4. Test for nephrotoxicity
The compounds of the present invention were dissolved or suspended in 0.5% CMC solution(in water) and were administered intraperitoneally one time to 8-week-old male ICR mice weighing 30±3 g. Each treatment and control groups consisted of six mice.
The administration amount of the test compound was 1.5 times the optimum dose obtained in Table 2, or more. On days 1, 4 and 8 after administration, their blood was collected under ether anesthesia for measurement of blood urea nitrogen concentration (BUN value) and creatinine concentration.
A pair of kidneys were taken and, after immediate weighing, were stored in a 10% neutral buffered formalin solution. The body weight ratio shown in Table 5 is a ratio of the body weight measured on days 1, 4 and 8 from the administration of the compound to the body weight measured on the administration day.

ICR mice = assay: Acute toxicity test; type: in vivo; design: Lethality: unit not given here; details: for Lethality: 10080 min
Procedure, shortened: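 Male and female 7-week-old ICR mice, 6 per group, dosed intraperitoneally. Signs and survival followed for 7 days, with autopsy of animals that died.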

human cancers = details: testicular, ovarian, bladder, head and neck cancer; cited from earlier work
[3] = 150 mg/kg i.p. once, mean ± standard error
[4] = 150 mg/kg i.p. once, vs. administration day

Which “IC50 (concentration required for 50% inhibition of growth)” value [1] does the source give for `CC1OC2C[NH2+][Pt-2]3([NH2+]CC2O1)[O]C(=O)C1(CCC1)C(=O)[O]3` [Example 23, cis-cyclobutane-1,1-dicarboxylato[(4S,5S)-4,5-bis(aminomethyl)-2-methyl-1,3-dioxolane]platinum(II)] here?
Its value is 1.75 µg/mL.

What about the “T/C (%)” value (murine leukemia L1210; 6.2 mg/kg i.p.) of the same compound?
Its value is 108%.

And the “T/C (%)” value (murine leukemia L1210; 12.5 mg/kg i.p.)?
Its value is 115%.

And the “T/C (%)” value (murine leukemia L1210; 25 mg/kg i.p.)?
The value was 150%.

And the “T/C (%)” value (murine leukemia L1210; 50 mg/kg i.p.)?
The value was 201%.

And the “T/C (%)” value (murine leukemia L1210; 100 mg/kg i.p.)?
Its value is 254%.

And the Solubility in water [2]?
The Solubility in water was 22.1 mg/mL.

And the “BUN, 1st day” value (Test for nephrotoxicity; 150 mg/kg i.p. once)?
The value was 24.8 mg/100 ml.

And the “BUN, 4th day” value (Test for nephrotoxicity; 150 mg/kg i.p. once)?
Its value is 32.1 mg/100 ml.

And the “BUN, 8th day” value (Test for nephrotoxicity; 150 mg/kg i.p. once)?
Its value is 42.0 mg/100 ml.

What about the “Creatinine, 1st day” value (Test for nephrotoxicity; 150 mg/kg i.p. once) of the same compound?
Its value is 0.26 mg/100 ml.

What about the “Creatinine, 4th day” value (Test for nephrotoxicity; 150 mg/kg i.p. once) of the same compound?
The value was 0.30 mg/100 ml.

And the “Creatinine, 8th day” value (Test for nephrotoxicity; 150 mg/kg i.p. once)?
The value was 0.28 mg/100 ml.

What about the “Kidney wt (paired weight), 1st day” value (Test for nephrotoxicity; [3]) of the same compound?
Its value is 492 ± 22.7 mg.

And the “Kidney wt (paired weight), 4th day” value (Test for nephrotoxicity; [3])?
The value was 535 ± 16.3 mg.

What about the “Kidney wt (paired weight), 8th day” value (Test for nephrotoxicity; [3]) of the same compound?
The value was 527 ± 13.8 mg.

What about the “body weight ratio (BWR), 1st day” value (Test for nephrotoxicity; [4]) of the same compound?
Its value is 0.98.

What about the “body weight ratio (BWR), 4th day” value (Test for nephrotoxicity; [4]) of the same compound?
Its value is 0.96.

What about the “body weight ratio (BWR), 8th day” value (Test for nephrotoxicity; [4]) of the same compound?
Its value is 0.99.

Which results are given for `CCC1O[C@H](CN)[C@@H](CN)O1.O=C1C[O][Pt][O]1` [Example 6, (glycolato-O,O')[(4R,5R)-4,5-bis(aminomethyl)-2-ethyl-1,3-dioxolane]platinum(II)]?
IC50 (concentration required for 50% inhibition of growth) [1]: 0.22 µg/mL; T/C (%) (murine leukemia L1210; 3.1 mg/kg i.p.): 113%; T/C (%) (murine leukemia L1210; 6.2 mg/kg i.p.): 162%; T/C (%) (murine leukemia L1210; 12.5 mg/kg i.p.): 205%; T/C (%) (murine leukemia L1210; 25 mg/kg i.p.): toxic; T/C (%) (murine leukemia L1210; 50 mg/kg i.p.): toxic; Solubility in water [2]: > 50 mg/mL; BUN, 1st day (Test for nephrotoxicity; 18.8 mg/kg i.p. once): 22.41 mg/100 ml; BUN, 4th day (Test for nephrotoxicity; 18.8 mg/kg i.p. once): 22.67 mg/100 ml; BUN, 8th day (Test for nephrotoxicity; 18.8 mg/kg i.p. once): 30.41 mg/100 ml; Number of dead mice for 7 days (ICR mice; female, 25.0 mg/kg i.p.): 0/6; Number of dead mice, 1st day (ICR mice; female, 25.0 mg/kg i.p.): 0/6; Number of dead mice for 7 days (ICR mice; female, 32.5 mg/kg i.p.): 1/6; Number of dead mice, 1st day (ICR mice; female, 32.5 mg/kg i.p.): 0/6; Number of dead mice, 3rd day (ICR mice; female, 32.5 mg/kg i.p.): 1/6; Lethality (ICR mice; female, 32.5 mg/kg i.p.): 16.7; Number of dead mice for 7 days (ICR mice; female, 42.3 mg/kg i.p.): 3/6; Number of dead mice, 1st day (ICR mice; female, 42.3 mg/kg i.p.): 0/6; Number of dead mice, 3rd day (ICR mice; female, 42.3 mg/kg i.p.): 1/6; Number of dead mice, 4th day (ICR mice; female, 42.3 mg/kg i.p.): 1/5; Number of dead mice, 5th day (ICR mice; female, 42.3 mg/kg i.p.): 1/4; Lethality (ICR mice; female, 42.3 mg/kg i.p.): 50.0; Number of dead mice for 7 days (ICR mice; female, 55.0 mg/kg i.p.): 5/6; Number of dead mice, 1st day (ICR mice; female, 55.0 mg/kg i.p.): 0/6; Number of dead mice, 3rd day (ICR mice; female, 55.0 mg/kg i.p.): 4/6; Number of dead mice, 4th day (ICR mice; female, 55.0 mg/kg i.p.): 1/2; Lethality (ICR mice; female, 55.0 mg/kg i.p.): 83.3; Number of dead mice for 7 days (ICR mice; female, 71.4 mg/kg i.p.): 6/6; Number of dead mice, 1st day (ICR mice; female, 71.4 mg/kg i.p.): 0/6; Number of dead mice, 3rd day (ICR mice; female, 71.4 mg/kg i.p.): 4/6; Number of dead mice, 4th day (ICR mice; female, 71.4 mg/kg i.p.): 2/2; Lethality (ICR mice; female, 71.4 mg/kg i.p.): 100.0; Number of dead mice for 7 days (ICR mice; male, 25.0 mg/kg i.p.): 0/6; Number of dead mice, 1st day (ICR mice; male, 25.0 mg/kg i.p.): 0/6; Number of dead mice for 7 days (ICR mice; male, 32.5 mg/kg i.p.): 0/6; Number of dead mice, 1st day (ICR mice; male, 32.5 mg/kg i.p.): 0/6; Number of dead mice, 3rd day (ICR mice; male, 32.5 mg/kg i.p.): 1/6; Lethality (ICR mice; male, 32.5 mg/kg i.p.): 16.7; Number of dead mice for 7 days (ICR mice; male, 42.3 mg/kg i.p.): 4/6; Number of dead mice, 1st day (ICR mice; male, 42.3 mg/kg i.p.): 0/6; Number of dead mice, 3rd day (ICR mice; male, 42.3 mg/kg i.p.): 1/6; Number of dead mice, 4th day (ICR mice; male, 42.3 mg/kg i.p.): 2/5; Number of dead mice, 5th day (ICR mice; male, 42.3 mg/kg i.p.): 1/3; Lethality (ICR mice; male, 42.3 mg/kg i.p.): 66.7; Number of dead mice for 7 days (ICR mice; male, 55.0 mg/kg i.p.): 6/6; Number of dead mice, 1st day (ICR mice; male, 55.0 mg/kg i.p.): 0/6; Number of dead mice, 3rd day (ICR mice; male, 55.0 mg/kg i.p.): 4/6; Number of dead mice, 4th day (ICR mice; male, 55.0 mg/kg i.p.): 1/2; Number of dead mice, 5th day (ICR mice; male, 55.0 mg/kg i.p.): 1/1; Lethality (ICR mice; male, 55.0 mg/kg i.p.): 100.0; Number of dead mice for 7 days (ICR mice; male, 71.4 mg/kg i.p.): 6/6; Number of dead mice, 1st day (ICR mice; male, 71.4 mg/kg i.p.): 0/6; Number of dead mice, 3rd day (ICR mice; male, 71.4 mg/kg i.p.): 4/6; Number of dead mice, 4th day (ICR mice; male, 71.4 mg/kg i.p.): 2/2; Lethality (ICR mice; male, 71.4 mg/kg i.p.): 100.0

Which “IC50 (concentration required for 50% inhibition of growth)” value [1] does the source give for `N.N.[Cl][Pt][Cl]` [cisplatin, cis-dichlorodiammineplatinum(II), reference compound] here?
The value was 0.06 µg/mL.

What about the “T/C (%)” value (murine leukemia L1210; 1.5 mg/kg i.p.) of the same compound?
The value was 142%.

What about the “T/C (%)” value (murine leukemia L1210; 3.1 mg/kg i.p.) of the same compound?
Its value is 167%.

And the “T/C (%)” value (murine leukemia L1210; 6.2 mg/kg i.p.)?
Its value is 82%.

What about the “T/C (%)” value (murine leukemia L1210; 12.5 mg/kg i.p.) of the same compound?
The value was “toxic”.

What about the “T/C (%)” value (murine leukemia L1210; 25 mg/kg i.p.) of the same compound?
Its value is “toxic”.

What about the “effectiveness on human cancers” value (human cancers) of the same compound?
Its value is “effective on a variety of human cancers”.
